Results taken from US6831061B2, “Apicidin-derivatives, their synthetic methods and anti-tumor compositions containing them” (priority 2000, dated 2004).
pIC50: −log10 of the molar value. ≈ marks a conversion by molar mass, not a printed value. Where two headings read alike, the source gives them in different places.

Assays:
[1] = tested on: HBL-100 (human breast cancer cell line); test: Cell growth inhibition assay (SRB assay), HBL-100; assay type: cell-based; conditions: HBL-100, 48 h
Experimental: (§1) HeLa (human cervical cancer cell line), v-ras-transformed NIH3T3 (mouse fibroblast cell line), Colon 3.1-M26 (mouse colon cancer cell line), MG63 (human osteosarcoma cell line) and MCF-7 (human breast cancer cell line) cells were cultured in DMEM (Dulbecco's modified Eagle's medium, produced by Life Technologies, Inc.). A2058 (human melanoma cell line), AGS (human gastric adenocarcinoma cell line), HBL-100 (human breast cancer cell line), CCD-18Co (human normal colon cell line) and LL86 (human normal lung cell line) cells were cultured in RPMI 1640 (Life Technologies, Inc.) in the presence of 10% FBS and 1% penicillin/streptomycin.
(§2) A cell growth inhibition assay according to sulforhodamine B (SRB) protein dye assay was carried out to examine the effects of apicidin derivative prepared in the Examples on mouse and human cancer cells. The cells were placed in wells and during cultivation were treated with 0.01, 0.1, 0.5, 1, and 2 μg/mL of apicidin, SD9801, SD9802, SD9803, the compound of Example 1, the compound of Example 2 and the compound of Example 3.
(§3) After 48 hours of cultivation, the media were removed from the well plates. The cells were fixed with 1 mL of 10% trichloroacetic acid at 4° C. washed 5 times with distilled water and completely dried in the air. The wells were treated with 0.4% SRB solution and died for 30 minutes at an ambient temperature. Subsequently, the wells were washed 5 times with distilled water and dried for 18 hours. To the respective wells, Tris-HCl (1 mL, 10 mM) was added to dissolve the proteins bonded to SRB. The contents of each well were removed and measured for their absorption at 490 nm.

[2] = tested on: HeLa (human cervical cancer cell line); test: Cell growth inhibition assay (SRB assay), HeLa; assay type: cell-based; conditions: 48 h, read-out: Growth inhibition IC50, HeLa cancer cells, SRB assay, 48 hours
Experimental: as §1, §2
(§4) After 48 hours of cultivation, the media were removed from the well plates. The cells were fixed with 1 mL of 10% trichloroacetic acid at 4° C. washed 5 times with distilled water and completely dried in the air. […] The contents of each well were removed and measured for their absorption at 490 nm.

[3] = tested on: LL86 (human normal lung cell line); test: Cell growth inhibition assay (SRB assay), LL86; assay type: cell-based
Experimental: as §1, §2, §3

[4] = tested on: AGS (human gastric adenocarcinoma cell line); test: Cell growth inhibition assay (SRB assay), AGS; assay type: cell-based; conditions: 48 h
Experimental: as §1, §2, §3

[5] = tested on: v-ras-transformed NIH3T3 (mouse fibroblast cell line); test: Cell growth inhibition assay (SRB assay), v-ras-transformed NIH3T3; assay type: cell-based; conditions: NIH3T3, 48 h
Experimental: as §1, §2, §3

[6] = tested on: MCF-7 (human breast cancer cell line); test: Cell growth inhibition assay (SRB assay), MCF-7; assay type: cell-based; conditions: MCF7, 48 h, read-out: Growth inhibition IC50, MCF-7 cancer cells, SRB assay, 48 hours
Experimental: as §1, §2, §4

[7] = tested on: MG63 (human osteosarcoma cell line); test: Cell growth inhibition assay (SRB assay), MG63; assay type: cell-based; conditions: MG-63, 48 h, read-out: Growth inhibition IC50, MG63 cancer cells, SRB assay, 48 hours
Experimental: as §1, §2, §4

[8] = tested on: CCD-18Co (human normal colon cell line); test: Cell growth inhibition assay (SRB assay), CCD-18Co; assay type: cell-based; conditions: for IC50: Homo sapiens, CCD-18Co, 48 h; for IC50 / Growth inhibition IC50: CCD-18Co normal cells, SRB assay; for Growth inhibition IC50: 48 hours
Experimental: as §1, §2, §3

[9] = tested on: Colon 3.1-M26 (mouse colon cancer cell line); test: Cell growth inhibition assay (SRB assay), Colon 3.1-M26; assay type: cell-based; conditions: for IC50: Mus musculus, 48 h
Experimental: as §1, §2, §3

[10] = tested on: A2058 (human melanoma cell line); test: Cell growth inhibition assay (SRB assay), A2058; assay type: cell-based; conditions: for IC50: Homo sapiens, A2058, 48 h, read-out: Growth inhibition IC50, A2058 cancer cells, SRB assay, 48 hours
Experimental: as §1, §2, §3

[11] = tested on: Histone deacetylase purified from HeLa cells; test: In vitro histone deacetylation assay; assay type: biochemical, human; conditions: [3H]acetyl histone substrate, 37° C., 20 minutes; read-out: Histone deacetylase inhibition IC50
Experimental: Histone deacetylase was purified from HeLa cells. The activity of histone deacetylase was measured according to a method known in the art—See, e.g., Inoue, A. et al., Biochem. Biophys. […] Here, histone with [^3H]acetyl group labeled with radio-active materials was used as a substrate for measurement of activity of histone deacetylase. After incubation at 37° C. for 20 minutes, [^3H]acetic acid released into medium was extracted with ethylacetate and quantified using a liquid radiation detection method.

[12] = read-out: Growth inhibition IC50, HBL-100 cancer cells, SRB assay, 48 hours
[13] = 48 h, read-out: Growth inhibition IC50, LL86 normal cells, SRB assay, 48 hours
[14] = read-out: Growth inhibition IC50, AGS cancer cells, SRB assay, 48 hours
[15] = read-out: Growth inhibition IC50, v-ras-transformed NIH3T3 cancer cells, SRB assay, 48 hours
[16] = read-out: Growth inhibition IC50, Colon 3.1-M26 cancer cells, SRB assay, 48 hours
[17] = Colon 3.1-M26 cancer cells, SRB assay, 48 hours
[18] = HBL-100 cancer cells, SRB assay, 48 hours, read-out: Growth inhibition IC50
[19] = LL86 normal cells, SRB assay, 48 hours, read-out: Growth inhibition IC50
[20] = AGS cancer cells, SRB assay, 48 hours, read-out: Growth inhibition IC50
[21] = v-ras-transformed NIH3T3 cancer cells, SRB assay, 48 hours, read-out: Growth inhibition IC50
[22] = Colon 3.1-M26 cancer cells, SRB assay, 48 hours, read-out: Growth inhibition IC50

| SMILES | IC50 [1, 12] | IC50 [2] | IC50 [3, 13] | IC50 [4, 14] | IC50 [5, 15] | IC50 [6] | IC50 [7] | IC50 [8] | IC50 [9, 16] | IC50 [10] | times higher safety against normal cell growth than the parent compound, apicidin ([8]; normal cell growth) | Growth inhibition IC50 [9, 17] | pIC50 [11] | Growth inhibition IC50 ([10]; A2058 cancer cells, SRB assay, 48 hours) | IC50 [1, 18] | IC50 [3, 19] | IC50 [4, 20] | IC50 [5, 21] | Growth inhibition IC50 [8] | IC50 [9, 22] |
| --- | --- | --- | --- | --- | --- | --- | --- | --- | --- | --- | --- | --- | --- | --- | --- | --- | --- | --- | --- | --- |
| CCC(=O)CCCCC[C@@H]1NC(=O)[C@H]2CCCCN2C(=O)[C@H]([C@@H](C)CC)NC(=O)[C@H](Cc2cn(OC)c3ccccc23)NC1=O [Apicidin, apicidin] | 0.57 µg/mL (≈ 0.914 µM) | 0.51 µg/mL (≈ 0.818 µM) | 4.25 µg/mL (≈ 6.81 µM) | 0.13 µg/mL (≈ 0.208 µM) | 0.18 µg/mL (≈ 0.289 µM) | 1.17 µg/mL (≈ 1.88 µM) | 1.88 µg/mL (≈ 3.01 µM) | 2.36 µg/mL (≈ 3.78 µM) | 0.17 µg/mL (≈ 0.273 µM) | 0.55 µg/mL (≈ 0.882 µM) | – | – | – | – | – | – | – | – | – | – |
| CCC(CCCCCC1NC(=O)C2CCCCN2C(=O)C(C(C)CC)NC(=O)C(Cc2cn(OC)c3ccccc23)NC1=O)=NNC(N)=O (stereo not shown) [Example 1, Semicarbazone Derivative of Apicidin] | < 0.2 µg/mL | – | – | < 0.2 µg/mL | < 0.2 µg/mL | – | – | – | 0.2 to 2.07 µg/mL (≈ 0.294 to 3.04 µM) | 0.2 to 2.07 µg/mL (≈ 0.294 to 3.04 µM) | about 5 times | 0.20 µg/mL | 9.00 | 0.34 µg/mL | – | – | – | – | – | – |
| CCC(CCCCCC1NC(=O)C2CCCCN2C(=O)C(C(C)CC)NC(=O)C(Cc2cn(OC)c3ccccc23)NC1=O)=NN (stereo not shown) [Example 2, Hydrazone Derivative of Apicidin] | – | – | 4.27 to 18.2 µg/mL (≈ 6.69 to 28.6 µM) | – | – | – | – | 4.27 to 18.2 µg/mL (≈ 6.69 to 28.6 µM) | – | – | – | 0.20 µg/mL | 8.52 | – | < 0.2 µg/mL | 16.3 µg/mL (≈ 25.6 µM) | < 0.2 µg/mL | < 0.2 µg/mL | 8.51 µg/mL | 0.2 to 2.07 µg/mL (≈ 0.314 to 3.25 µM) |
| CCC(CCCCCC1NC(=O)C2CCCCN2C(=O)C(C(C)CC)NC(=O)C(Cc2cn(OC)c3ccccc23)NC1=O)=NNC(C)(C)C (stereo not shown) [Example 3, tert-butylhydrazone Derivative of Apicidin] | – | – | 4.27 to 18.2 µg/mL (≈ 6.15 to 26.3 µM) | – | – | – | – | 4.27 to 18.2 µg/mL (≈ 6.15 to 26.3 µM) | – | – | – | 0.21 µg/mL | 7.60 | – | < 0.2 µg/mL | 14.8 µg/mL (≈ 21.3 µM) | < 0.2 µg/mL | < 0.2 µg/mL | 4.27 µg/mL | 0.2 to 2.07 µg/mL (≈ 0.288 to 2.98 µM) |
| CCC(CCCCCC1NC(=O)C2CCCCN2C(=O)C(C(C)CC)NC(=O)C(Cc2cn(OC)c3ccccc23)NC1=O)=NNC(=O)NN (stereo not shown) [Example 4, Carbohydrazone Derivative of Apicidin] | – | – | – | – | – | – | – | – | – | – | – | – | 7.41 | – | – | – | – | – | – | – |
